Like-named read-outs stand apart in the source and are kept apart here.

8 molecules from patent US10898469B2, “Imidazolylamide derivative” (Sumitomo Dainippon Pharma Co., Ltd., priority 2016, dated 2021) can be followed below.

A short description of data set [1]: Pharmacokinetic assay in tumor-bearing mice where HCT-116 cells were transplanted (Test Example 3). In kind it is in vivo. The note with it: female, BALB/cAnNCrlj-nu/nu, plasma, tumor-bearing nude mouse; for concentration at 1 h: read-out: Plasma concentrations after oral administration, 1 hour; for concentration at 2 h: read-out: Plasma concentrations after oral administration, 2 hours; for concentration at 6 h: read-out: Plasma concentrations after oral administration, 6 hours; for concentration at 24 h: read-out: Plasma concentrations after oral administration, 24 hours. As for the experimental part: A 7- to 12-week-old nude mouse (BALB/cAnNCrlj-nu/nu, female, CHARLES RIVER LABORATORIES JAPAN, INC.) received intradermal transplantation of human colorectal cancer-derived HCT-116 cells (ATCC) in an amount of 3×10^6 cells/mouse around the ventral part. […] Blood was collected 1, 2, 6, and 24 hours after administration, and centrifuged to afford plasma samples. Methanol was added to the plasma samples so as to be adjusted to 80% of the final concentration. The samples were centrifuged and filtered to be deproteinized. Then, the test compound was detected and quantitated with LC-MS/MS (API4000, AB SCIEX). In quantitation, a calibration curve was prepared with mouse plasma comprising a known amount of the compound and Bezafibrate was used for the internal standard.
The test in Test Example 3 was performed for the compounds of Examples.
The following table and FIGS. 1 to 5 show temporal changes of the plasma concentrations of compounds after oral administration.

For data set [2], the system named is HCT-116 cells. The data set is described as follows: Drug efficacy assay in tumor-bearing mice where HCT-116 cells were transplanted (Test Example 4). The class given is in vivo. The note with it: HCT-116 tumor-bearing nude mouse, oral, dosage 200 mg/kg, administration period 15 days. An excerpt:
The present compound can be used to evaluate the anti-tumor effect thereof according to the following assay. A 4- to 7-week-old nude mouse (BALB/cAnNCrj-nu/nu, female, CHARLES RIVER LABORATORIES JAPAN, INC.) received intradermal transplantation of human colorectal cancer-derived HCT-116 cells (ATCC) in an amount of 3×10^6 cells/mouse around the ventral portion. The engraftment of HCT-116 cells was observed 5 to 14 days after the transplantation, and then each compound suspended in a solvent such as 0.5% methylcellulose solution was orally administrated to the mouse in a dose of 1 to 200 mg/kg one to twice daily. The tumor volume was measured over time after the administration to evaluate the effect for reducing the tumor volume by the administration of each compound. The tumor volume can be calculated from the minor axis and major axis of the tumor measured with a digital caliper (Mitutoyo) according to the following equation: Tumor volume [mm^3]=[…] The tumor volume in the present-compound-administration group was compared with that of the control administration group treated with only a solvent such as 0.5% methylcellulose solution, and T/C value was calculated according the following equation to evaluate the anti-tumor effect of the present compound. […]

Data set [3] can be described thus: Solid state thermal stability. The class given is physicochemical. The note with it: 70° C., vessel left open; for solid state thermal stability (change of form): stored for 12 weeks. The method, then: The solid state thermal stability was measured for the compounds of Examples 237 and 238 according to the following method. The compounds of Examples 237 and 238 were put into an isothermal vessel set at 70° C., and the samples were stored for 12 weeks under the condition that the vessel was left open. Each elemental analysis result for each compound after 12 weeks is shown as follows.

The test system of data set [4] is HT-29 cells. The data set is described as follows: Inhibition test for sphere-forming ability of cancer cells (Test Example 1), HT-29. The class given is cell-based, human. As to conditions: concentration for 50% inhibition of cell proliferation, read-out: IC50 (μmol/L) HT-29 (Sphere IC50 value). An outline of the steps: (§1)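 Cells were seeded at 350-800 cells/well in ultra-low-attachment plates in serum-free DMEM/F12 with 2% B27, 20 ng/mL EGF, 10 ng/mL bFGF and 5 μg/mL insulin. Compounds were added at 0.1% final DMSO for 4 days. Viable cells were read by CellTiter-Glo luminescence to give Sphere IC50 (μmol/L).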

The subject of data set [5] is FaDu cells. The data set is described as follows: Inhibition test for sphere-forming ability of cancer cells in the presence of BSA (Test Example 2), FaDu. The class given is cell-based, human. The note with it: in the presence of 5% BSA, cultured 4 days. An outline of the steps: (§2)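 Spheres grown 4 days in ultra-low-attachment wells, 350-800 cells/well, in DMEM/F12 with 2% B27, 20 ng/mL EGF, 10 ng/mL bFGF, 5 μg/mL insulin and 5% BSA; 0.1% DMSO final. Viable cells read by CellTiter-Glo luminescence; Sphere IC50 (μmol/L) for 50% proliferation inhibition.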

Data set [6] has as its system FaDu cells. The data set is described as follows: Inhibition test for sphere-forming ability of cancer cells (Test Example 1), FaDu. As to conditions: concentration for 50% inhibition of cell proliferation, read-out: IC50 (μmol/L) FaDu (Sphere IC50 value). In kind it is cell-based, human. An outline of the steps:
as §1

For data set [7], the system named is HCT-116 cells. The data set is described as follows: Inhibition test for sphere-forming ability of cancer cells in the presence of BSA (Test Example 2), HCT-116. The class given is cell-based, human. The note with it: HCT-116 cells, in the presence of 5% BSA, cultured 4 days. An outline of the steps: as §2
Data set [8] relates to HT-29 cells. The data set is described as follows: Inhibition test for sphere-forming ability of cancer cells in the presence of BSA (Test Example 2), HT-29. The class given is cell-based, human. As to conditions: in the presence of 5% BSA, cultured 4 days. An outline of the steps: as §2
In data set [9] the test system is HCT-116 cells. The data set is described as follows: Inhibition test for sphere-forming ability of cancer cells (Test Example 1), HCT-116. In kind it is cell-based, human. As to conditions: HCT-116 cells; concentration for 50% inhibition of cell proliferation; read-out: IC50 (μmol/L) HCT-116 (Sphere IC50 value). An outline of the steps:
as §1

Where [10] appears, read: oral single dose 150 mg/kg, 0.5% methylcellulose.
The mark [11] stands for this setting: oral single dose 100 mg/kg, 20% Labrasol.
The mark [12] stands for this setting: oral single dose 60 mg/kg, 0.5% methylcellulose.

Take `O=C(/C=C/c1cccnc1)Nc1cn(Cc2cccc(Cl)c2)cn1` [Example 120, (E)-N-(1-(3-chlorobenzyl)-1H-imidazol-4-yl)-3-(pyridin-3-yl)acrylamide]: in data set [1] (setting [10]), the concentration at 1 h is 9.22 µg/mL, the concentration at 2 h was 7.04 µg/mL, the concentration at 6 h is 1.2 µg/mL and the concentration at 24 h worked out at 0.142 µg/mL.

In general, T/C refers to the result in the treated group divided by that in the control group, in per cent. Take `CC(=O)Nc1ccc(/C=C/C(=O)Nc2cn(Cc3cccc(C(F)(F)F)c3)cn2)cc1.Cl` [Example 122, (E)-N-(1-(3-trifluoromethyl-benzyl)-1H-imidazol-4-yl)-3-(4-(acetylamino)phenyl)acrylamide]: in data set [1] (setting [11]), the concentration at 1 h was 0.16 µg/mL, the concentration at 2 h amounted to 0.642 µg/mL, the concentration at 6 h amounted to 0.467 µg/mL and the concentration at 24 h is 0.221 µg/mL. The molecule also gave a T/C in data set [2] of 51%.

As to `CC(=O)Nc1ccc(/C=C/C(=O)Nc2cn(Cc3cccc(OC(F)(F)F)c3)cn2)cc1` [Example 123], in [1] (setting [11]), the concentration at 1 h came to 0.287 µg/mL, the concentration at 2 h came out at 0.837 µg/mL, the concentration at 6 h was found to be 0.079 µg/mL and the concentration at 24 h worked out at 0.062 µg/mL.

`COc1ccc(/C=C/C(=O)Nc2cn(Cc3cccc(C(F)(F)F)c3)cn2)cc1OCCO` [Example 128]: in data set [1] (setting [11]), the concentration at 1 h is 4.7 µg/mL, the concentration at 2 h amounted to 0.61 µg/mL, the concentration at 6 h came out at 0.644 µg/mL and the concentration at 24 h is 0.013 µg/mL.

Turning to `N#Cc1ccc(/C=C/C(=O)Nc2cn(Cc3cccc(Cl)c3)cn2)cc1OCCO` [Example 129], in data set [1] (setting [11]), the concentration at 1 h came to 0.465 µg/mL, the concentration at 2 h was determined as 0.309 µg/mL and the concentration at 6 h turned out to be 0.271 µg/mL.

Consider `COc1ccc(C(=O)Nc2cn(Cc3cc(F)c(F)c(F)c3)cn2)cc1OC.Cl` [Example 237, 3,4-dimethoxy-N-[1-(3,4,5-trifluorobenzyl)-1H-imidazol-4-yl]benzamide], for which, in data set [1] (setting [12]), the concentration at 1 h turned out to be 13.2 µg/mL, the concentration at 2 h came out at 9.76 µg/mL, the concentration at 6 h turned out to be 3.39 µg/mL and the concentration at 24 h turned out to be 0.004 µg/mL. For the same molecule, in data set [3] (12 weeks), the “Elemental analysis C (%) measured value after 12 weeks” value is 54.71%, the “Elemental analysis Cl (%) measured value after 12 weeks” value was 4.00%, the “Elemental analysis F (%) measured value after 12 weeks” value came to 13.74% and the “Elemental analysis H (%) measured value after 12 weeks” value amounted to 4.31%. In addition, the “Elemental analysis N (%) measured value after 12 weeks” value in [3] (12 weeks) worked out at 10.28%. In addition, the “solid state thermal stability (change of form)” value in data set [3] was “changed to 0.5 hydrochloride 0.5 hydrate”.

`COc1ccc(C(=O)Nc2cn(Cc3cc(F)c(F)c(F)c3)cn2)cc1OC` [Example 238, 3,4-Dimethoxy-N-[1-(3,4,5-trifluorobenzyl)-1H-imidazol-4-yl]benzamide tosilate]: in [3] (12 weeks), the “Elemental analysis C (%) measured value after 12 weeks” value is listed as 55.51%, the “Elemental analysis F (%) measured value after 12 weeks” value was 10.15%, the “Elemental analysis H (%) measured value after 12 weeks” value was found to be 4.33% and the “Elemental analysis N (%) measured value after 12 weeks” value turned out to be 7.48%. Further, the “Elemental analysis S (%) measured value after 12 weeks” value in data set [3] (12 weeks) was 5.62%. Also, in [3], the “solid state thermal stability (change of form)” value is on record as “not changed”.

As for `O=C(Nc1ccncn1)c1cn(Cc2cccc(Cl)c2)cn1` [Example 261], the IC50 in [4] was 0.46 µmol/L; in data set [5] it was 0.48 µM; in [6], 0.59 µmol/L; in data set [7], 0.86 µM; in data set [8], 0.52 µM; in [9], 0.61 µmol/L.
